Earlier results on two compounds are cited in patent publication US12365946B2, “Compositions and methods for the diagnosis and treatment of lymphatic system disorders” (THE CHILDREN'S HOSPITAL OF PHILADELPHIA, priority 2018, dated 2025).

One series deals with autophagy. The note with it: cited from earlier work.
Series [1] concerns the target immunophilin FKBP12 (FK506 binding protein) (Homo sapiens, UniProt P62942). The note with it: by binding to FKBP12; cited from earlier work.
A further series addresses mTOR (Homo sapiens, UniProt P42345). To be noted: Table 2 grade symbols (+ to ++++, √); key not given; cited from earlier work.

Chain of immunophilin FKBP12 (FK506 binding protein) (P62942 whole entry): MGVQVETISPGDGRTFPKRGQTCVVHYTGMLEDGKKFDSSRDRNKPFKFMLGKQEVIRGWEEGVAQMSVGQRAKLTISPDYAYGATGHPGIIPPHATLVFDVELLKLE

In the case of `O=[N+]([O-])c1ccc(Nc2nc(N3CCOCC3)nc(N3CCOCC3)n2)cc1` [MHY1485], the inhibits autophagy result in the series on autophagy is reported as “also potently inhibits autophagy”. In the case of `C=CC[C@@H]1/C=C(\C)C[C@H](C)C[C@H](OC)[C@H]2O[C@@](O)(C(=O)C(=O)N3CCCC[C@H]3C(=O)O[C@H](/C(C)=C/[C@@H]3CC[C@@H](O)[C@H](OC)C3)[C@H](C)[C@@H](O)CC1=O)[C@H](C)C[C@@H]2OC` [Tacrolimus (FK506), Tacrolimus], the “peptidyl-prolyl isomerase activity in T cells” value in series [1] is recorded as “reduces peptidyl-prolyl isomerase”. At mTOR, the mTOR entry was “√”.
